Reference: PubChem BioAssay (NCI)
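The compound was tested at five concentrations on cells cultured in 96-well plates, with a 48-hour exposure period. The concentration for full growth arrest is given as TGI.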

What was measured:
Experiment in all cases: growth of human tumour cells (NCI), 48 h
[1] = test system: K-562 leukemia
[2] = test system: HT29 colon
[3] = test system: OVCAR-3 ovarian
[4] = test system: CAKI-1 renal
[5] = test system: DMS 273 small cell lung
[6] = test system: MALME-3M melanoma
[7] = test system: SK-OV-3 ovarian
[8] = test system: MOLT-4 leukemia
[9] = test system: KM20L2 colon
[10] = test system: COLO 205 colon
[11] = test system: HOP-62 NSCLC
[12] = test system: 786-0 renal
[13] = test system: LXFL 529 NSCLC
[14] = test system: SF-268 CNS
[15] = test system: SNB-78 CNS
[16] = test system: SF-295 CNS
[17] = test system: EKVX NSCLC
[18] = test system: OVCAR-8 ovarian
[19] = test system: NCI-H460 lung
[20] = test system: SK-MEL-5 melanoma
[21] = test system: TK-10 renal
[22] = test system: SK-MEL-2 melanoma
[23] = test system: SN12C renal
[24] = test system: HOP-92 NSCLC
[25] = test system: HL-60(TB) leukemia
[26] = test system: SF-539 CNS
[27] = test system: M14 melanoma
[28] = test system: HOP-18 NSCLC
[29] = test system: SNB-19 CNS
[30] = test system: OVCAR-4 ovarian
[31] = test system: NCI-H23 lung
[32] = test system: IGROV1 ovarian
[33] = test system: HCC-2998 colon
[34] = test system: SW-620 colon
[35] = test system: SK-MEL-28 melanoma
[36] = test system: HCT-15 colon
[37] = test system: DLD-1 colon
[38] = test system: A549 NSCLC
[39] = test system: OVCAR-5 ovarian
[40] = test system: HCT-116 colon
[41] = test system: UACC-62 melanoma
[42] = test system: NCI-H522 lung
[43] = test system: U251 CNS
[44] = test system: M19-MEL melanoma
[45] = test system: UO-31 renal
[46] = test system: SR leukemia
[47] = test system: CCRF-CEM leukemia
[48] = test system: SNB-75 CNS
[49] = test system: KM12 colon
[50] = test system: UACC-257 melanoma
[51] = test system: DMS 114 small cell lung
[52] = test system: ACHN renal
[53] = test system: NCI-H226 lung

Cc1ccc2nc3cc(C)c(=O)cc-3sc2c1 was tested, and the TGI [1] was > 100 µM, the TGI [2] was > 100 µM and the TGI [3] was > 100 µM. The TGI [4] was > 100 µM, the TGI [5] was > 100 µM and the TGI [6] was > 100 µM. For the same compound, the TGI [7] was > 100 µM, the TGI [8] was > 100 µM and the TGI [9] was > 100 µM. For the same compound, the TGI [10] was > 100 µM, the TGI [11] was > 100 µM and the TGI [12] was > 100 µM. The TGI [13] was > 100 µM, the TGI [14] was > 100 µM and the TGI [15] was > 100 µM. For the same compound, the TGI [16] was > 100 µM, the TGI [17] was > 100 µM and the TGI [18] was > 100 µM. The TGI [19] was > 100 µM, the TGI [20] was > 100 µM and the TGI [21] was > 100 µM. For the same compound, the TGI [22] was > 100 µM, the TGI [23] was > 100 µM and the TGI [24] was > 100 µM. For the same compound, the TGI [25] was 64.7 µM, the TGI [26] was > 100 µM and the TGI [27] was > 100 µM. For the same compound, the TGI [28] was > 100 µM, the TGI [29] was > 100 µM and the TGI [30] was > 100 µM. The TGI [31] was > 100 µM, the TGI [32] was > 100 µM and the TGI [33] was > 100 µM. The TGI [34] was > 100 µM, the TGI [35] was > 100 µM and the TGI [36] was > 100 µM. For the same compound, the TGI [37] was > 100 µM, the TGI [38] was > 100 µM and the TGI [39] was > 100 µM. For the same compound, the TGI [40] was > 100 µM, the TGI [41] was 82.8 µM and the TGI [42] was > 100 µM. The TGI [43] was > 100 µM, the TGI [44] was 30.7 µM and the TGI [45] was > 100 µM. The TGI [46] was > 100 µM, the TGI [47] was 45.2 µM and the TGI [48] was 84.9 µM. The TGI [49] was > 100 µM, the TGI [50] was > 100 µM and the TGI [51] was > 100 µM. The TGI [52] was > 100 µM and the TGI [53] was > 100 µM.
